Measurements reported in publication PMC10489644, “In Vitro Evaluation of the Potential for Drug Interactions by Salidroside” (Nutrients, 2023).

Key:
[1] = test system: CYP1A2; assay: in vitro; conditions: human; for % of Positive Control / Mean Enzyme Activity: 48 h
Description: (§1) The sandwich medium was removed, and the hepatocytes were treated with incubation solutions containing salidroside (1, 5, 10, and 30 µM), vehicle (0.1% DMSO), or positive inducers in triplicate for 24 h after the cultures were established. The incubation solution was aspirated and replaced with incubation solution containing the same concentrations of salidroside, vehicle, or positive inducers for an additional 24 h. The total treatment period was 48 h. After the treatment period of 48 h, the incubation solution was aspirated. Hepatocytes were washed twice with pre-warmed HBSS containing 10 mM HEPES (HBSS I) and then the remaining solution was aspirated. Hepatocytes were washed once with pre-warmed HBSS I and incubated with 140 μL of RLT (lysis buffer from RNeasy 96 Kit) supplemented with 1% β-mercaptoethanol. Plates were then stored at −70 °C in a freezer until RNA analysis. Before RNA extraction, the frozen plate was thawed, and cell lysates were transferred to 96-well plates. RNA isolation was performed using a QIAcube RNA extraction system. Reverse transcription was performed to obtain cDNA. Quantification of the selective genes by real-time quantitative polymerase chain reaction (qPCR) was performed with TaqMan universal PCR Master Mix on the Bio-rad CFX384 TouchTM Real-Time PCR System. The relative change in the mRNA level of the selected target genes induced by each test compound was expressed in relation to the vehicle control sample, and fold changes in gene expression were determined by the ΔΔCt method.
(§2) Enzyme activity (%) = PAR with compound/PAR vehicle × 100.

[2] = test system: CYP2B6; assay: in vitro; conditions: human; for % of Positive Control / Mean Enzyme Activity: 48 h
Description: as §1, §2

[3] = parameters: method as in PMID 35684130; conditions: multiple oral dose rat study; cited from earlier work
[4] = test system: CYP3A4/5; assay: in vitro; conditions: human, microsomes
[5] = target: CYP2C9 (Homo sapiens, UniProt P11712); conditions: microsomes
Sequence of CYP2C9 (P11712 whole entry): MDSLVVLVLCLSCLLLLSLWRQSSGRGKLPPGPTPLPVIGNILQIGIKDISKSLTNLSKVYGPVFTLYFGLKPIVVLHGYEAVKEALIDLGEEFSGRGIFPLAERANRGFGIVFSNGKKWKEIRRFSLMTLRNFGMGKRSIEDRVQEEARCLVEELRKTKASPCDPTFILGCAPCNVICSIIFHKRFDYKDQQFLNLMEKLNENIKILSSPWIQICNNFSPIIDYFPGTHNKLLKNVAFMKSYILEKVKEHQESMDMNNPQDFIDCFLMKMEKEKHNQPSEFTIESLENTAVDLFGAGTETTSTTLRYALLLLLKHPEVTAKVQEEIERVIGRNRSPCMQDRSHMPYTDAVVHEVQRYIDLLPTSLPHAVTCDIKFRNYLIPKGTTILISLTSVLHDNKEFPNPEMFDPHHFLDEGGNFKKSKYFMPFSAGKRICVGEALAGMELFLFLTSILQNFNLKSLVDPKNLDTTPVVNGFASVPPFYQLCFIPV

[6] = test system: CYP1A2; assay: in vitro; conditions: human; for Mean Fold Induction: 48 h
Description: as §1, with “The” for “The sandwich medium was removed, and the hepatocytes were treated with incubation solutions containing salidroside (1, 5, 10, and 30 µM), vehicle (0.1% DMSO), or positive inducers in triplicate for 24 h after the cultures were established. The”

Compound: OC[C@H]1O[C@@H](OCCc2ccc(O)cc2)[C@H](O)[C@@H](O)[C@@H]1O [Salidroside]
- fold induction at 48 h, 0.1 µM [1]: 0.8
- fold induction at 48 h, 1 µM [1]: 0.66
- fold induction at 48 h, 10 µM [1]: 0.76
- % of Positive Control ([1]; 0.1 µM): −8%
- Mean Enzyme Activity ([1]; 0.1 µM): 2.18 pmol/10^6 cells/min
- % of Positive Control ([1]; 1 µM): −13%
- Mean Enzyme Activity ([1]; 1 µM): 1.81 pmol/10^6 cells/min
- % of Positive Control ([1]; 10 µM): −9%
- Mean Enzyme Activity ([1]; 10 µM): 2.08 pmol/10^6 cells/min
- fold induction at 48 h, 0.1 µM [2]: 0.87
- fold induction at 48 h, 1 µM [2]: 0.58
- fold induction at 48 h, 10 µM [2]: 0.87
- % of Positive Control ([2]; 0.1 µM): −3%
- Mean Enzyme Activity ([2]; 0.1 µM): 0.77 pmol/10^6 cells/min
- % of Positive Control ([2]; 1 µM): −9%
- Mean Enzyme Activity ([2]; 1 µM): 0.51 pmol/10^6 cells/min
- % of Positive Control ([2]; 10 µM): −3%
- Mean Enzyme Activity ([2]; 10 µM): 0.76 pmol/10^6 cells/min
- no observed adverse effect level (NOAEL) [3]: ≥ 2000 mg/kg/day
- IC50 at 10 min [4]: > 50 µM
- IC50 Shift [5]: no shift
- Mean Fold Induction ([6]; 1 µM): 1.3 fold
- Mean Fold Induction ([6]; 3 µM): 1.0 fold
- Mean Fold Induction ([6]; 10 µM): 1.1 fold
- Mean Fold Induction ([6]; 30 µM): 1.2 fold
- fold induction at 48 h, 1 µM ([6]; Mean Fold Induction): 0.9
- fold induction at 48 h, 3 µM ([6]; Mean Fold Induction): 0.9
- fold induction at 48 h, 10 µM ([6]; Mean Fold Induction): 0.9
- fold induction at 48 h, 30 µM ([6]; Mean Fold Induction): 0.8
